Laboratory results from ChEMBL document CHEMBL1201862, “PubChem BioAssay data set” (2004).
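Tested at 5 concentrations; 48 h exposure; 96-well plates; endpoints linearly interpolated, else capped at highest concentration. The concentration for 50% growth inhibition is given as GI50.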 The source made the active and inactive calls. Rule as the data show it: active = GI50 up to about 1.1 µM and inactive = higher.

Legend:
Experiment in all cases: growth of human tumour cells (NCI), 48 h
HT-29 = tested on: HT-29
OVCAR-4 = tested on: OVCAR-4
OVCAR-8 = tested on: OVCAR-8
SF-539 = tested on: SF-539
COLO 205 = tested on: COLO 205
MCF7 = tested on: MCF7
OVCAR-5 = tested on: OVCAR-5
SN12C = tested on: SN12C
T47D = tested on: T47D
MDA-MB-435 = tested on: MDA-MB-435
PC-3 = tested on: PC-3
ACHN = tested on: ACHN
HOP-62 = tested on: HOP-62
SK-MEL-5 = tested on: SK-MEL-5
SNB-75 = tested on: SNB-75
NCI-H23 = tested on: NCI-H23
RXF 393 = tested on: RXF 393
HCT-15 = tested on: HCT-15
M14 = tested on: M14
BT-549 = tested on: BT-549
HL-60 = tested on: HL-60
Hs-578T = tested on: Hs-578T
SR = tested on: SR
SW-620 = tested on: SW-620
NCI-H522 = tested on: NCI-H522
DU-145 = tested on: DU-145
K562 = tested on: K562
NCI/ADR-RES = tested on: NCI/ADR-RES
UACC-257 = tested on: UACC-257
A549 = tested on: A549
SK-OV-3 = tested on: SK-OV-3
MDA-N = tested on: MDA-N
NCI-H226 = tested on: NCI-H226
IGROV-1 = tested on: IGROV-1
SF-268 = tested on: SF-268
Malme-3M = tested on: Malme-3M
A498 = tested on: A498
SK-MEL-2 = tested on: SK-MEL-2
SNB-19 = tested on: SNB-19
OVCAR-3 = tested on: OVCAR-3
KM12 = tested on: KM12
NCI-H460 = tested on: NCI-H460
U-251 = tested on: U-251
MOLT-4 = tested on: MOLT-4
RPMI-8226 = tested on: RPMI-8226
LOX IMVI = tested on: LOX IMVI
TK-10 = tested on: TK-10
EKVX = tested on: EKVX
CAKI-1 = tested on: CAKI-1
SF-295 = tested on: SF-295
UO-31 = tested on: UO-31
HCC 2998 = tested on: HCC 2998
UACC-62 = tested on: UACC-62
CCRF-CEM = tested on: CCRF-CEM
SK-MEL-28 = tested on: SK-MEL-28
MDA-MB-231 = tested on: MDA-MB-231
HOP-92 = tested on: HOP-92
HCT-116 = tested on: HCT-116
786-0 = tested on: 786-0

Measured: GI50

C[C@]12CC[C@H]3[C@@H](CCC4=CC(=O)CC[C@@]43C)[C@@H]1CC[C@@H]2C(=O)COS(=O)(=O)c1ccc(Br)cc1
active: MDA-N 0.379 µM | CCRF-CEM 0.207 µM
inactive: HT-29 11.8 µM | OVCAR-4 4.5 µM | OVCAR-8 3.61 µM | SF-539 9.25 µM | COLO 205 20.5 µM | MCF7 8.15 µM | OVCAR-5 18.1 µM | SN12C 5.97 µM | T47D 9.35 µM | MDA-MB-435 9.55 µM | PC-3 8.85 µM | ACHN 10.9 µM | HOP-62 17 µM | SK-MEL-5 8.77 µM | SNB-75 17.5 µM | NCI-H23 2.37 µM | RXF 393 14.5 µM | M14 6.55 µM | BT-549 10 µM | HL-60 4.69 µM | Hs-578T 20.4 µM | SR 1.4 µM | SW-620 9.4 µM | NCI-H522 1.59 µM | DU-145 16.8 µM | K562 4.09 µM | NCI/ADR-RES 10.6 µM | UACC-257 13.7 µM | A549 18.7 µM | SK-OV-3 15.1 µM | NCI-H226 13.2 µM | IGROV-1 1.6 µM | SF-268 8.93 µM | Malme-3M 3.49 µM | A498 20.2 µM | SK-MEL-2 8.38 µM | SNB-19 19.5 µM | OVCAR-3 6.43 µM | KM12 15.1 µM | NCI-H460 10.1 µM | U-251 8.93 µM | MOLT-4 1.41 µM | RPMI-8226 2.35 µM | LOX IMVI 1.61 µM | TK-10 18.3 µM | EKVX 7.67 µM | CAKI-1 7.76 µM | SF-295 19.3 µM | UO-31 1.7 µM | HCC 2998 2.09 µM | UACC-62 16 µM | SK-MEL-28 21 µM | MDA-MB-231 6.49 µM | HOP-92 5.94 µM
14.2 µM: HCT-15

N#C/C(=C\N1CCNC1=S)C(=O)c1ccc2ccccc2c1
inactive: HCT-116 > 100 µM | HT-29 > 100 µM | OVCAR-4 74 µM | OVCAR-8 > 100 µM | SF-539 > 100 µM | COLO 205 > 100 µM | MCF7 > 100 µM | OVCAR-5 > 100 µM | SN12C > 100 µM | T47D 67 µM | MDA-MB-435 89.1 µM | PC-3 97.1 µM | ACHN > 100 µM | HOP-62 > 100 µM | SK-MEL-5 > 100 µM | SNB-75 > 100 µM | NCI-H23 > 100 µM | RXF 393 > 100 µM | M14 > 100 µM | BT-549 > 100 µM | HL-60 7.06 µM | Hs-578T > 100 µM | SR 71.4 µM | SW-620 > 100 µM | NCI-H522 > 100 µM | DU-145 > 100 µM | K562 > 100 µM | NCI/ADR-RES > 100 µM | UACC-257 > 100 µM | A549 > 100 µM | SK-OV-3 > 100 µM | MDA-N > 100 µM | NCI-H226 > 100 µM | 786-0 > 100 µM | IGROV-1 > 100 µM | SF-268 > 100 µM | A498 > 100 µM | SK-MEL-2 > 100 µM | SNB-19 > 100 µM | OVCAR-3 > 100 µM | KM12 > 100 µM | NCI-H460 > 100 µM | U-251 > 100 µM | MOLT-4 37.4 µM | RPMI-8226 89.7 µM | LOX IMVI > 100 µM | TK-10 > 100 µM | EKVX > 100 µM | CAKI-1 > 100 µM | SF-295 > 100 µM | UO-31 > 100 µM | HCC 2998 > 100 µM | UACC-62 > 100 µM | SK-MEL-28 > 100 µM | MDA-MB-231 > 100 µM | HOP-92 > 100 µM
> 100 µM: HCT-15
